According to patent publication US20150018409A1, “CHIMERIC POLYPEPTIDES AND THEIR USE” (ADRIACELL S.P.A., priority 2003, published 2015):

Key:
U2OS cells [1] = experiment: FACS analysis of DNA content / cell cycle distribution; assay type: cell-based, human; settings: for interaction with SCPVUTAT on the cell cycle: simultaneous incubation with SCPVUTAT
Method: The distribution of the various phases of the cell cycle of the protein transduced cells was analysed by FACS analysis. Distribution of the DNA content of the cell populations was detected. 2n represents a diploid DNA equivalent (non replicated; G1 phase), 4n represents the tetraploid DNA equivalent (replicated; G2/M phase). For the FACS analysis the cells were separated employing the DDM mode that allows to estimate DNA content of a single cell. U2OS cells were grown for 24 hours (upper row) or 48 hours (lower row) in the presence of increasing amounts of […] (10 nM, 50 nM, 100 nM) as indicated and with only one addition of proteins; non treated cells (control); cells treated with a nuclease impaired derivative of […] (SC34, 100 nM). All the histograms shown represent a measure of DNA content relative to the cell numbers as indicated only on the upper right panel.
U2OS cells were incubated with […] (10 nM, panel B), or with H2O2 (10 μM, panelC), or both ([…], 10 nM; H2O2, 10 μM; panel D), or with no agent as a control (panel A). Further treatment cells were analysed in FACS for DNA content; the percentage of the various cell cycle phases are indicated at the bottoms of the individual histograms.
Finally, to confirm that the DSB's that are produced in vivo also induce perturbations in the cell cycle, DNA content in the various phases of the cell cycle was analysed by Fluorescence Activated Cell Sorting (FACS) after transduction of the proteins of the invention. After the treatment with diverse proteins at various concentrations and during different timepoints, the cells were fixed in 70% ethanol, treated with RNAse A and stained with propidium […].
The FACS analysis was done using a FACSCalibur™ (Becton Dickinson) apparatus. The obtained data were evaluated with the CellQuest™ software program package. At least 3×10^4 single events for every sample were analysed in the DDM mode. The statistic analysis of the DNA content distribution during the cell cycle was done with the MODFIT LT™ software program package. A 2N diploid DNA content correspond to cells in the G1 phase of the cell cycle, 4N represents a relative tetraploid DNA content and corresponds to G2 and/or M phase of the cell cycle. An intermediate DNA content represents S phase corresponding to a population actively replicating DNA during the cell cycle and a content that is below diploid 2N represents cells in apoptosis.
U2OS cells were incubated with 10 nM […] and with 10 μM H2O2 alone or in combination ant the cell cycle profile was analysed by FACS.

[2] = system: AT-5 cells (ATM negative); settings: SCPVUTAT 100 nM or HU 1 mM
Method: AT-5 cells, negative for ATM were treated with [sequence]
(§1) P53 phosphorylation on Ser15 in response to [sequence] treatment was assayed in ATM positive or negative cell lines (MRC-5 and AT-5 respectively). For comparison parallel experiments were done with hydroxyurea (HU). […] For this immunoblotting experiments were done with extracts after treatment, by using specific antibodies to a phosphorylated Ser15 in p53 for specific detection.

[3] = system: MRC-5 cells (ATM positive); settings: SCPVUTAT 100 nM or HU 1 mM
Method: [sequence] dependent Ser^15 phosphorylation of p53. The ATM positive cell-line MRC5 was treated with [sequence] (100 nM, SC) or with hydroxyurea (1 mM, HU) for the time periods as indicated; as a control non treated cells were used (O).
as §1

HCT116 (p53(+/+)) cells = experiment: Cell cycle arrest point: nuclear morphology and immunofluorescence of cyclin B1 and Cdc25C; assay type: cell-based, human; settings: 30 hours; SCPVUTAT 100 nM or Taxol 0.2 μg/ml
Method: Microscopic analysis of the HCT116 (p53(+/+)) cells not treated, or treated with […] (100 nM) for 30 hours, or with taxol (0.2 μg/ml). Immunofluorescence analysis was done with primary antibodies specific for cyclin B1 or specific for Cdc25C and coloured with secondary conjugates of FITC (green, cyclinB1) or TRITC (red, Cdc25C).
Moreover, the initiation of mitosis, i.e. induced with the microtuble blocking agents Nocodazol or Taxol, can be detected by the nuclear activity of the Cdc2 kinase and also by nuclear localisation of Cdc25C. These assays allow to dissect the exact point of cell cycle arrest after […] treatment and this further allows to detect disturbations in this phase of the cell cycle relative to a positive control. Similar experiments are well known in the art also for other phases of the cell cycle. The assay shown in FIG. 7A and the immunofluorescence analysis shown in FIG. 14 show examples for these types of experiments.
HCT116 (p53(+/+)) not treated, or treated for 30 hours with […] (100 nM), or with Taxol (0.2 μg/ml) were fixated with 3% PFA and treated with specific antibodies to cyclin B1 or for Cdc25C. The immunofluorescence was analysed with the microscope (see FIG. 14) with specific primary antibodies to cyclin B1 conjugated to FITC labelled secondary antibodies (green) or with specific primary antibodies to Cdc25C conjugated to TRITC labelled secondary antibodies (red).

U2OS cells [4] = experiment: Histone H2AX Ser139 phosphorylation, single cell fluorescence microscopy; assay type: cell-based, human; settings: Wortmanin 50 μM with SCPVUTAT 100 nM, 60 minutes
Method: U2OS cells were treated with [sequence] (100 nM, central column) for 60 minutes, in addition treatment was done with Wortmanin (50 μM, WM, right column), or with no agent as a control (left column). After treatment cells were stained with specific antibodies to H2AX-Ser-139 phosphorylated (red) or for Histone 2B (served as a control, green) and analysed on a single cell level by fluorescence microscopy.
As another example for a phosphorylation of a substrate of ATM in response to the object of the invention, histone H2AX Ser^139 phosphorylation was analysed. […] U2OS cells were treated for 60 minutes with [sequence], fixed and analysed for histone H2AX Ser^139 phosphorylation. Cells were analysed with a specific antiserum to phospho-Ser 139 on histone H2AX and analysed in the microscope on a single cell basis. As a control histone 2B was analysed.

ATM, ATR and TOR = settings: Sarkaria et al., 1999; target not stated with the value; cited from earlier work
[5] = system: U2OS osteosarcoma cells and IMR90 primary fibroblasts; experiment: Protein transduction of the chimeric proteins (immunoblot and immunofluorescence with PvuII antibody); assay type: cell-based, human
Method: For a comparison aliquots of the supernatants of the cell culture taken before extract preparation were included in the analysis (upper panel, SUPERNATANT).
In addition DNA costaining was obtained with propidium J after RNAse A digest (red, upper panel).
The transduction capacity of the chimeric proteins was assayed in U2OS osteosarcoma cells and in the IMR90 primary fibroblasts cells. The cells were grown in DMEM containing 10% FCS and treated with the proteins of the invention in the same medium, in general in the presence of antibiotics. After 10 minutes of incubation of the cells with increasing quantities of the fusion protein […] (1, 10, 50, 100, 200 nM) and with the protein SCPVU (single chain PvuII without TAT) and SC34 as a control (prepared as described for […] except that the enzyme PvuII contains a mutant in position 34) cell extracts were prepared, separated on SDS-PAGE and assayed by immuno-blot analysis with a monospecific antibody to PvuII. Further, uptake was assayed after 30 min of incubation by immuno-fluorescence analysis using PvuII specific antibodies and nuclear costaining with propidium iodide.

## OO [H2O2]
U2OS cells [1]; 10 μM H2O2 alone
  change of G2 phase: no increase in G2
U2OS cells [1]
  interaction with SCPVUTAT on the cell cycle: synergistic effect

## NC(=O)NO [HU, hydroxyurea, reference compound]
[2]
  p53-Ser15 phosphorylation: comparable however consistently higher
[3]
  p53-Ser15 phosphorylation: comparable however consistently higher

## CC(=O)O[C@H]1C(=O)[C@@]2(C)[C@H]([C@H](OC(=O)c3ccccc3)[C@]3(O)C[C@H](OC(=O)[C@H](O)[C@@H](NC(=O)c4ccccc4)c4ccccc4)C(C)=C1C3(C)C)[C@]1(OC(C)=O)CO[C@@H]1C[C@@H]2O [Taxol, reference compound]
HCT116 (p53(+/+)) cells
  cell cycle stop from localisation of Cdc25C and cyclin B: stop in M phase

## COC[C@H]1OC(=O)c2coc3c2[C@@]1(C)C1=C(C3=O)[C@@H]2CCC(=O)[C@@]2(C)C[C@H]1OC(C)=O [Wortmanin, reference compound]
U2OS cells [4]
  effect on SCPVUTAT induced histone H2AX Ser139 phosphorylation: antagonist for this reaction

## C[C@@]1(CO)[C@H](O)CC[C@@]2(C)[C@H]1CC[C@H]1C[C@@H]3C[C@@]12CC[C@]3(O)CO [aphidicolin]
U2OS cells [1]
  interaction with SCPVUTAT on the cell cycle: no synergistic effect was observed

## Cn1c(=O)c2c(ncn2C)n(C)c1=O [caffeine]
ATM, ATR and TOR
  IC50: < 1000 µM
[5]
  influence of caffeine on the transduction capacity of SCPVUTAT: nor does it influence the transduction capacity
U2OS cells [1]; 100 nM SCPVUTAT in combination with 2 mM caffeine, 30 hours
  effect of caffeine on the SCPVUTAT cell cycle stop: antagonist to the effect of SCPVUTAT in vivo
U2OS cells [1]; 2 mM caffeine
  cell cycle effect of caffeine alone: moderate delay in the G1 phase
